Results on eleven compounds are retold here after paper PMC11421147 (Journal of Enzyme Inhibition and Medicinal Chemistry, 2024).

In experiment [1] the test system is human blood paraoxonase-1 (PON1). Particulars: cited from earlier work.
The next experiment deals with T1, human sPLA2 hG-IIA (Homo sapiens, UniProt P14555).
T1 sequence (P14555 21-144): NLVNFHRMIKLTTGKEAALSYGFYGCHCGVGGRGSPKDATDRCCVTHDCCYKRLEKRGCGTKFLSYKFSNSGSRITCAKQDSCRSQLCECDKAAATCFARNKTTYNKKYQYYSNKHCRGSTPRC
Put plainly: Inhibition of sPLA2 activity. It counts as biochemical. The note with it: IC50 ± standard deviation; for IC50: IC50 sPLA2(IIA).

The target of a further experiment is α-glucosidase (Saccharomyces cerevisiae, UniProt P53341). Put plainly: α-Glucosidase inhibitory activity. It counts as biochemical.
Chain of α-glucosidase (P53341 whole entry): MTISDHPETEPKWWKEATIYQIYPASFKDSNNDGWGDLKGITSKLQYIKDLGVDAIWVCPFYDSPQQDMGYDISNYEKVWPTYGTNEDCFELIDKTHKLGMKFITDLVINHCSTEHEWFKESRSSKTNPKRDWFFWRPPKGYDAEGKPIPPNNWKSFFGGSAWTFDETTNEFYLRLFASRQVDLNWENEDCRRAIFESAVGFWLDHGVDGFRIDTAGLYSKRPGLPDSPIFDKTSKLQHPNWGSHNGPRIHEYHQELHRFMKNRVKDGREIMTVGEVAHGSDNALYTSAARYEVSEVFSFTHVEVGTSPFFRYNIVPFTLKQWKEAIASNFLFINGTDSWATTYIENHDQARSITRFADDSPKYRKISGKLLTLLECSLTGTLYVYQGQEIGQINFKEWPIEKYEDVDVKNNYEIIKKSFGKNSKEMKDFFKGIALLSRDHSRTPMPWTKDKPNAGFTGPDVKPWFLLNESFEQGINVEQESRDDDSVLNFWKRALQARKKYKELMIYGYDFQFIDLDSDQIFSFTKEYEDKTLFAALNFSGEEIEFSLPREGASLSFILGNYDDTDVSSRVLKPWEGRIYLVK

As to `COc1ccc(OC)c(C(O)CNC(=O)CN)c1` (stereo not shown) [Midodrine], in experiment [1], the “type of inhibition of PON1” value is “competitive inhibition”.

By IC50 is commonly meant the midpoint of a concentration-inhibition curve. A high value points to weaker potency in that assay. Take `O=S(=O)(NNc1nc2ccccc2nc1NNS(=O)(=O)c1ccccc1)c1ccccc1` [Compound 6a, N’,N’’’-(quinoxaline-2,3-diyl)dibenzenesulfonohydrazide]: the values for the half-inhibitory concentration (IC50) at human sPLA2 hG-IIA and against α-glucosidase were 47.5 ± 0.8 nM and 3150 ± 32 nM, respectively.

In the case of `CC(C)NCC(O)COc1cccc2[nH]ccc12` (stereo not shown) [pindolol], in experiment [1], the “type of inhibition of PON1” value is “non-competitive inhibition”.

Turning to `O=S(=O)(NNc1nc2ccccc2nc1Cl)c1ccc(C(F)(F)F)cc1` [Compound 5c, N’-(3-chloroquinoxalin-2-yl)-4-(trifluoromethyl) benzenesulfonohydrazide], the values for the IC50 at human sPLA2 hG-IIA and on α-glucosidase were 2590 ± 292 nM and 29400 ± 532 nM, respectively.

For `O=S(=O)(NNc1nc2ccccc2nc1NNS(=O)(=O)c1ccc(C(F)(F)F)cc1)c1ccc(C(F)(F)F)cc1` [Compound 6c, N’,N’’’-(quinoxaline-2,3-diyl)bis(4-trifluoromethylbenzenesulfonohydrazide)], the IC50 against human sPLA2 hG-IIA was 2240 ± 1050 nM; against α-glucosidase, 95.3 ± 5.4 nM.

For `CC(C)(C)NCC(O)COc1cccc2c1CC(O)C(O)C2` (stereo not shown) [nadolol], in experiment [1], the “type of inhibition of PON1” value is listed as “competitive inhibition”.

Turning to `CC(C)NCC(O)COc1ccc(CC(N)=O)cc1` (stereo not shown) [atenolol], the “type of inhibition of PON1” value in experiment [1] is on record as “non-competitive inhibition”.

Turning to `O=S(=O)(NNc1nc2ccccc2nc1NNS(=O)(=O)c1ccc(Br)cc1)c1ccc(Br)cc1` [Compound 6d, N’,N’’’-(quinoxaline-2,3-diyl)bis(4-bromobenzenesulfonohydrazide)], at human sPLA2 hG-IIA, the midpoint of inhibition, the IC50, lay at 4930 ± 241 nM and the “IC50 sPLA2(IIA)” value is listed as “high micromolar”. This compound also gave an IC50 against α-glucosidase of 8290 ± 367 nM.

In the case of `O=S(=O)(NNc1nc2ccccc2nc1Cl)c1ccc(Br)cc1` [Compound 5d, 4-Bromo-N’-(3-chloroquinoxalin-2-yl)benzenesulfonohydrazide], the values for the IC50 against human sPLA2 hG-IIA and against α-glucosidase were 2120 ± 132 nM and 13300 ± 263 nM, respectively.

For `Cc1ccc(S(=O)(=O)NNc2nc3ccccc3nc2NNS(=O)(=O)c2ccc(C)cc2)cc1` [Compound 6b, N’,N’’’-(quinoxaline-2,3-diyl)bis(4-methylbenzenesulfonohydrazide)], the IC50 at human sPLA2 hG-IIA turned out to be 76.5 ± 1.7 nM; against α-glucosidase, 960 ± 112 nM.

Take `Cc1ccc(S(=O)(=O)NNc2nc3ccccc3nc2Cl)cc1` [Compound 5b, N’-(3-chloroquinoxalin-2-yl)-4-methylbenzenesulfonohydrazide]: the results for the IC50 on human sPLA2 hG-IIA and against α-glucosidase were 1520 ± 212 nM and 2790 ± 500 nM, respectively.
